Data: patent publication US20250382266A1, “5-HT2A RECEPTOR LIGANDS” (Psilera Inc., priority 2022, published 2025)

Experiments:
[1] = molecular target: 5-HT2B (Homo sapiens, UniProt P41595); assay: radioligand binding at 5-HT2B; conditions: 50 nM; radioligand [3H]mesulergine
Description: (§1) In vitro pharmacological assessment of this compound (N-(2-(1H-indol-3-yl)ethyl)-2-(1H-indol-3-yl)-N-methylethan-1-amine) was performed using radioligand binding at various serotonergic and sigma receptors. The results appear in table 2 below

[2] = molecular target: T1, 5-HT2C (Homo sapiens, UniProt P28335); assay: radioligand binding at 5-HT2C; conditions: 50 nM; radioligand [3H]mesulergine
T1 sequence (P28335 33-458): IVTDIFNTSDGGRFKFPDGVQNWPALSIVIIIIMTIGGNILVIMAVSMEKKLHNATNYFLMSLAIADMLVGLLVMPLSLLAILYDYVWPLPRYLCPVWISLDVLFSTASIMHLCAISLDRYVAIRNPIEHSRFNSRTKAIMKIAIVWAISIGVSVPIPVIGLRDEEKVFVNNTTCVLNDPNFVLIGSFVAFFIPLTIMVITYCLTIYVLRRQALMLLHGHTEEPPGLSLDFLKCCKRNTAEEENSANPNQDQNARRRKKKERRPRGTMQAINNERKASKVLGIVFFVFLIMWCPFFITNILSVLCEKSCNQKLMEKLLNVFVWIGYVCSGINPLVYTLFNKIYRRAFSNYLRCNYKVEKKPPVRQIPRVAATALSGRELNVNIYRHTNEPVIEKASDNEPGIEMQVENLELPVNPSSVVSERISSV
Description: as §1

[3] = molecular target: T2, 5-HT1A (Homo sapiens, UniProt P08908); assay: radioligand binding at 5-HT1A; conditions: 50 nM; radioligand [3H]8-OH-DPAT
T2 sequence (P08908 1-422): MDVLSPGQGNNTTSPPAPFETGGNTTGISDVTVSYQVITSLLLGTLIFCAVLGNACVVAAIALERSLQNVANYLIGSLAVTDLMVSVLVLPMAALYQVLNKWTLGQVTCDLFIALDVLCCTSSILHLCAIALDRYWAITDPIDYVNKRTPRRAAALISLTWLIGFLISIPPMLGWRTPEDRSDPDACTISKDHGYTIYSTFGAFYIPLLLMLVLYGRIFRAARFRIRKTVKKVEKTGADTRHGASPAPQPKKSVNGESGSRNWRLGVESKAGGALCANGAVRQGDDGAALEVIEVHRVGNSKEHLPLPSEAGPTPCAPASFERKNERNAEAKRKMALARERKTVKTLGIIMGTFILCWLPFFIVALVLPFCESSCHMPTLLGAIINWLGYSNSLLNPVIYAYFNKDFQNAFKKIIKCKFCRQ
Description: as §1

[4] = molecular target: 5-HT2A (Homo sapiens, UniProt P28223); assay: radioligand binding at 5-HT2A; conditions: 50 nM; radioligand [3H]ketanserin
5-HT2A, sequence (P28223 whole entry): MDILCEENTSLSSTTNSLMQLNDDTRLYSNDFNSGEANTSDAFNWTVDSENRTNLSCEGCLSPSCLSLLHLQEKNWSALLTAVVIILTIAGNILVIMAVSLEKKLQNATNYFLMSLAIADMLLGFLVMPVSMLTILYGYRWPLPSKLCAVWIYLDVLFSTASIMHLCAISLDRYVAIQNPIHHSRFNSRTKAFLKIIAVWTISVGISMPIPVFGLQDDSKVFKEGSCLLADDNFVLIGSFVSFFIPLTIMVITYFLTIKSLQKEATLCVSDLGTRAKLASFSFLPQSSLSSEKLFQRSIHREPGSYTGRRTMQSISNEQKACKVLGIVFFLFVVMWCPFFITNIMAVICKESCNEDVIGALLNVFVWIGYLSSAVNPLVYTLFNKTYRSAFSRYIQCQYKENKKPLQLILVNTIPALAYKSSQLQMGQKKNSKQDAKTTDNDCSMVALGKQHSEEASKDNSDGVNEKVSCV
Description: as §1

[5] = molecular target: 5-HT7 (Homo sapiens, UniProt P34969); assay: radioligand binding at 5-HT7; conditions: 50 nM; radioligand [3H]LSD
5-HT7, sequence (P34969 whole entry, species assumed): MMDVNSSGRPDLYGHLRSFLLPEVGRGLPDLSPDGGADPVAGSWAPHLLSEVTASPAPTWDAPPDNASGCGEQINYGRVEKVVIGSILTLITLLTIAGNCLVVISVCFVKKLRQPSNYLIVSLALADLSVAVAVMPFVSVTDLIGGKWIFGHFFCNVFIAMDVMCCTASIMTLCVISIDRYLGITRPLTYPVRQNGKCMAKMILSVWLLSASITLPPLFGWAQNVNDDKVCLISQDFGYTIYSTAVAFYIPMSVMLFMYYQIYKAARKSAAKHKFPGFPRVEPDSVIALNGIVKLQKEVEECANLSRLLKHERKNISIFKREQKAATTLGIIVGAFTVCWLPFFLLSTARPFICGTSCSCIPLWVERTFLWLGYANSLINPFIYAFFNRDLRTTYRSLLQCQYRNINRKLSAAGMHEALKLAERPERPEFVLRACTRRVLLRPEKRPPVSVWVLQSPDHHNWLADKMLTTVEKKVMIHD
Description: as §1

[6] = molecular target: 5-HT6 (Homo sapiens, UniProt P50406); assay: radioligand binding at 5-HT6; conditions: 50 nM; radioligand [3H]LSD
5-HT6, sequence (P50406 whole entry, species assumed): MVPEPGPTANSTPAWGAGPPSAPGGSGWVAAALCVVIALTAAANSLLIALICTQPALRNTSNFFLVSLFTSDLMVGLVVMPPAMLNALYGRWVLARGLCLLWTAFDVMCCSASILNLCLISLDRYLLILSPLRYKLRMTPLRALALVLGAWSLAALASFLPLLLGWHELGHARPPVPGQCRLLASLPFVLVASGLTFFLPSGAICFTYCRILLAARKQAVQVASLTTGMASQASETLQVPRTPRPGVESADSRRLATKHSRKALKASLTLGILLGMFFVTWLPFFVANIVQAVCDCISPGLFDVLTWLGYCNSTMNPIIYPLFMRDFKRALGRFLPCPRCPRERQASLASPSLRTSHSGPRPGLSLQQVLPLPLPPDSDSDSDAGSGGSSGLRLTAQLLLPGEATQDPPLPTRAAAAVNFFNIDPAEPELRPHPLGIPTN
Description: as §1

[7] = molecular target: Sigma 2 (Homo sapiens, UniProt Q5BJF2); assay: radioligand binding at Sigma 2; conditions: 500 nM; radioligand [3H]DTG + (+)pentazocine
Sigma 2, sequence (Q5BJF2 whole entry): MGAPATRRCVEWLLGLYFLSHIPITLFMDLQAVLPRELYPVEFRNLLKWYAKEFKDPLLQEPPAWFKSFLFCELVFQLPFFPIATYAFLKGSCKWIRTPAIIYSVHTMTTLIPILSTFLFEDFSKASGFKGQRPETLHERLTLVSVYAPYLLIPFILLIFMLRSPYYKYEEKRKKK
Description: as §1

[8] = molecular target: Sigma 1 (Homo sapiens, UniProt Q99720); assay: radioligand binding at Sigma 1; conditions: 500 nM; radioligand [3H](+)pentazocine
Sigma 1, sequence (Q99720 whole entry): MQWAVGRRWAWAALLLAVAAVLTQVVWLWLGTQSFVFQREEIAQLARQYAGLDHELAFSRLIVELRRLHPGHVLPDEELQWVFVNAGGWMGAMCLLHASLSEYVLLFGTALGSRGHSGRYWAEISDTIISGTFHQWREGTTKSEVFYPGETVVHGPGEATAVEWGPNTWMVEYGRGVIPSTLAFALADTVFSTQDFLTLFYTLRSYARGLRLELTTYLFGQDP
Description: as §1

5-HT2B, sequence (P41595 whole entry, species assumed): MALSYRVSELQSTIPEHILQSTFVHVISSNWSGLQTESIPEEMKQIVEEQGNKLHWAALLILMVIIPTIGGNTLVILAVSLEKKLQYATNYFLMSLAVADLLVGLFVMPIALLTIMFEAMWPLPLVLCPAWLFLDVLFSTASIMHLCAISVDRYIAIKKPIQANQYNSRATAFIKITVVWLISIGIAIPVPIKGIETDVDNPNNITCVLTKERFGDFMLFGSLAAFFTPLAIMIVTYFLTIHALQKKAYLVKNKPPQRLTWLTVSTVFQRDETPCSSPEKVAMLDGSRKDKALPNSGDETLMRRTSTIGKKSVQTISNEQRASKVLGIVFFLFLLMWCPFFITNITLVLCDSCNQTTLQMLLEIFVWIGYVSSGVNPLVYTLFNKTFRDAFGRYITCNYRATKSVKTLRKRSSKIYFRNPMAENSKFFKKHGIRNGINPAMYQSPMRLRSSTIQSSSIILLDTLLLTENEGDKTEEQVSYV

`CN(CCc1c[nH]c2ccccc12)CCc1c[nH]c2ccccc12` [Example 1, N-(2-(1H-indol-3-yl)ethyl)-2-(1H-indol-3-yl)-N-methylethan-1-amine] showed an inhibition at 0.05 µM [1] of 96.8%, an inhibition at 0.05 µM [2] of 72.8% and an inhibition at 0.05 µM [3] of 70.9%. The inhibition at 0.05 µM [4] was 82.7%, the inhibition at 0.05 µM [5] was 79.7% and the inhibition at 0.05 µM [6] was 26.3%. It also gave an inhibition at 0.5 µM [7] of 26.1% and an inhibition at 0.5 µM [8] of 21.7%.
